pIC50: −log10 of the molar value.
Columns and labels:
Assay in all cases: cells
Format in all cases: functional, cell-based
Details in all cases: Homo sapiens
TE-9 = tested on: TE-9;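 further: cell growth inhibition, measured with a cell viability readout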
Description: SANGER: Inhibition of human TE-9 cell growth in a cell viability assay.

JVM-3 = tested on: JVM-3;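 further: growth inhibition of human JVM-3 cells, read out with a cell viability assay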
Description: SANGER: Inhibition of human JVM-3 cell growth in a cell viability assay.

L-363 = tested on: L-363
Description: SANGER: Inhibition of human L-363 cell growth in a cell viability assay.

HAL-01 = tested on: HAL-01;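 further: growth inhibition of human HAL-01 cells, read out with a cell viability assay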
Description: SANGER: Inhibition of human HAL-01 cell growth in a cell viability assay.

GT3TKB = tested on: GT3TKB;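 further: growth inhibition of the cell line, read out with a cell viability assay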
Description: SANGER: Inhibition of human GT3TKB cell growth in a cell viability assay.

MFM-223 = tested on: MFM-223
Description: SANGER: Inhibition of human MFM-223 cell growth in a cell viability assay.

MOLT-4 = tested on: MOLT-4;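 further: growth inhibition of MOLT-4 cells, determined with a cell viability readout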
Description: SANGER: Inhibition of human MOLT-4 cell growth in a cell viability assay.

ES3 = tested on: ES3;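 further: growth inhibition of ES3 cells, read out with a cell viability assay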
Description: SANGER: Inhibition of human ES3 cell growth in a cell viability assay.

TE-5 = tested on: TE-5;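 further: inhibition of cell growth, read out by a cell viability assay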
Description: SANGER: Inhibition of human TE-5 cell growth in a cell viability assay.

COLO-800 = tested on: COLO-800;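 further: growth inhibition of COLO-800 cells, read out with a cell viability assay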
Description: SANGER: Inhibition of human COLO-800 cell growth in a cell viability assay.

COLO-320-HSR = tested on: COLO-320-HSR;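 further: growth inhibition of COLO-320-HSR cells, determined with a cell viability assay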
Description: SANGER: Inhibition of human COLO-320-HSR cell growth in a cell viability assay.

L-428 = tested on: L-428
Description: SANGER: Inhibition of human L-428 cell growth in a cell viability assay.

NCI-H82 = tested on: NCI-H82;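 further: growth inhibition of NCI-H82 cells, measured with a cell viability readout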
Description: SANGER: Inhibition of human NCI-H82 cell growth in a cell viability assay.

ES4 = tested on: ES4;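 further: growth inhibition of human ES4 cells, read out by a cell viability assay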
Description: SANGER: Inhibition of human ES4 cell growth in a cell viability assay.

MZ2-MEL = tested on: MZ2-MEL;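 further: growth inhibition of MZ2-MEL cells read out with a cell viability assay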
Description: SANGER: Inhibition of human MZ2-MEL cell growth in a cell viability assay.

SK-MEL-1 = tested on: SK-MEL-1;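 further: growth inhibition of human SK-MEL-1 cells, read out by a cell viability assay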
Description: SANGER: Inhibition of human SK-MEL-1 cell growth in a cell viability assay.

no-10 = tested on: no-10;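 further: growth inhibition of no-10 cells, read out with a cell viability assay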
Description: SANGER: Inhibition of human no-10 cell growth in a cell viability assay.

NCI-H747 = tested on: NCI-H747;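 further: growth inhibition of human NCI-H747 cells, read out by a cell viability assay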
Description: SANGER: Inhibition of human NCI-H747 cell growth in a cell viability assay.

HH = tested on: HH
Description: SANGER: Inhibition of human HH cell growth in a cell viability assay.

A101D = tested on: A101D;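 further: growth inhibition of the cell line, measured with a viability assay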
Description: SANGER: Inhibition of human A101D cell growth in a cell viability assay.

NB10 = tested on: NB10;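 further: growth inhibition of NB10 cells, read out by a cell viability assay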
Description: SANGER: Inhibition of human NB10 cell growth in a cell viability assay.

A388 = tested on: A388;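 further: growth inhibition of human A388 cells, read out with a cell viability assay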
Description: SANGER: Inhibition of human A388 cell growth in a cell viability assay.

CCRF-CEM = tested on: CCRF-CEM;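 further: inhibition of CCRF-CEM cell growth, measured by a cell viability assay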
Description: SANGER: Inhibition of human CCRF-CEM cell growth in a cell viability assay.

HT = tested on: HT
Description: SANGER: Inhibition of human HT cell growth in a cell viability assay.

HCC1187 = tested on: HCC1187;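 further: growth inhibition of HCC1187 cells, read out with a cell viability assay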
Description: SANGER: Inhibition of human HCC1187 cell growth in a cell viability assay.

MLMA = tested on: MLMA;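 further: growth inhibition of MLMA cells (human), determined through a cell viability readout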
Description: SANGER: Inhibition of human MLMA cell growth in a cell viability assay.

DSH1 = tested on: DSH1;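 further: growth inhibition of human DSH1 cells, measured with a cell viability readout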
Description: SANGER: Inhibition of human DSH1 cell growth in a cell viability assay.

CGTH-W-1 = tested on: CGTH-W-1;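 further: growth inhibition of human CGTH-W-1 cells measured by cell viability assay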
Description: SANGER: Inhibition of human CGTH-W-1 cell growth in a cell viability assay.

ONS-76 = tested on: ONS-76;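 further: growth inhibition of human ONS-76 cells, read out with a cell viability assay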
Description: SANGER: Inhibition of human ONS-76 cell growth in a cell viability assay.

SK-N-DZ = tested on: SK-N-DZ;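 further: growth inhibition of the cancer cell line, read out through a viability assay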
Description: SANGER: Inhibition of human SK-N-DZ cell growth in a cell viability assay.

KARPAS-45 = tested on: KARPAS-45;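 further: inhibition of cell line growth, read out through a viability assay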
Description: SANGER: Inhibition of human KARPAS-45 cell growth in a cell viability assay.

DMS-114 = tested on: DMS-114
DJM-1 = tested on: DJM-1;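 further: growth inhibition of human DJM-1 cells, read out by a cell viability assay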
Description: SANGER: Inhibition of human DJM-1 cell growth in a cell viability assay.

NCI-H1092 = tested on: NCI-H1092;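 further: cell growth inhibition measured with a cell viability assay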
Description: SANGER: Inhibition of human NCI-H1092 cell growth in a cell viability assay.

COLO-824 = tested on: COLO-824
Description: SANGER: Inhibition of human COLO-824 cell growth in a cell viability assay.

HD-MY-Z = tested on: HD-MY-Z;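 further: growth inhibition of HD-MY-Z cells, read out with a cell viability assay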
Description: SANGER: Inhibition of human HD-MY-Z cell growth in a cell viability assay.

SK-UT-1 = tested on: SK-UT-1;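 further: growth inhibition of SK-UT-1 cells, measured by a cell viability assay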
Description: SANGER: Inhibition of human SK-UT-1 cell growth in a cell viability assay.

NOS-1 = tested on: NOS-1;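 further: growth inhibition of the human NOS-1 cell line, read out with a cell viability assay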
Description: SANGER: Inhibition of human NOS-1 cell growth in a cell viability assay.

LAMA-84 = tested on: LAMA-84;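 further: growth inhibition of LAMA-84 cells, read out with a cell viability assay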
Description: SANGER: Inhibition of human LAMA-84 cell growth in a cell viability assay.

U-266 = tested on: U-266
Description: SANGER: Inhibition of human U-266 cell growth in a cell viability assay.

DEL = tested on: DEL;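 further: growth inhibition of the human DEL cell line, read out with a cell viability assay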
Description: SANGER: Inhibition of human DEL cell growth in a cell viability assay.

KINGS-1 = tested on: KINGS-1;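 further: cell viability assay measuring suppression of KINGS-1 cell growth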
Description: SANGER: Inhibition of human KINGS-1 cell growth in a cell viability assay.

K562 = tested on: K562
Description: SANGER: Inhibition of human K-562 cell growth in a cell viability assay.

HEL = tested on: HEL;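 further: growth inhibition of HEL cells, read out with a cell viability assay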
Description: SANGER: Inhibition of human HEL cell growth in a cell viability assay.

NCI-H446 = tested on: NCI-H446;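 further: growth inhibition of NCI-H446 cells determined by a cell viability assay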
Description: SANGER: Inhibition of human NCI-H446 cell growth in a cell viability assay.

KP-N-YS = tested on: KP-N-YS;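 further: cell viability assay measuring inhibition of cell line growth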
Description: SANGER: Inhibition of human KP-N-YS cell growth in a cell viability assay.

TE-6 = tested on: TE-6;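 further: growth inhibition of TE-6 cells, read out with a cell viability assay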
Description: SANGER: Inhibition of human TE-6 cell growth in a cell viability assay.

LNCaP-Clone-FGC = tested on: LNCaP-Clone-FGC
Description: SANGER: Inhibition of human LNCaP-Clone-FGC cell growth in a cell viability assay.

LB2518-MEL = tested on: LB2518-MEL;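 further: growth inhibition of human LB2518-MEL cells, measured with a cell viability assay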
Description: SANGER: Inhibition of human LB2518-MEL cell growth in a cell viability assay.

NCI-H1304 = tested on: NCI-H1304;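 further: growth inhibition of the cancer cell line, measured in a cell viability assay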
Description: SANGER: Inhibition of human NCI-H1304 cell growth in a cell viability assay.

NCI-H510A = tested on: NCI-H510A;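 further: growth inhibition of NCI-H510A cells, read out with a cell viability assay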
Description: SANGER: Inhibition of human NCI-H510A cell growth in a cell viability assay.

TE-10 = tested on: TE-10;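 further: growth inhibition of TE-10 cells, measured by a cell viability assay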
Description: SANGER: Inhibition of human TE-10 cell growth in a cell viability assay.

RCC10RGB = tested on: RCC10RGB;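 further: growth inhibition of human RCC10RGB cells, read out by a cell viability assay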
Description: SANGER: Inhibition of human RCC10RGB cell growth in a cell viability assay.

KALS-1 = tested on: KALS-1;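 further: growth inhibition of KALS-1 cells, determined with a cell viability assay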
Description: SANGER: Inhibition of human KALS-1 cell growth in a cell viability assay.

SK-NEP-1 = tested on: SK-NEP-1;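 further: growth inhibition of human SK-NEP-1 cells, read out by a cell viability assay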
Description: SANGER: Inhibition of human SK-NEP-1 cell growth in a cell viability assay.

UACC-257 = tested on: UACC-257
Description: SANGER: Inhibition of human UACC-257 cell growth in a cell viability assay.

OCI-AML2 = tested on: OCI-AML2;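 further: growth inhibition of OCI-AML2 cells, read out with a cell viability assay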
Description: SANGER: Inhibition of human OCI-AML2 cell growth in a cell viability assay.

EKVX = tested on: EKVX;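 further: growth inhibition of human EKVX cells, read out with a cell viability assay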
Description: SANGER: Inhibition of human EKVX cell growth in a cell viability assay.

OVCAR-4 = tested on: OVCAR-4;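 further: growth inhibition of human OVCAR-4 cells, measured with a cell viability assay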
Description: SANGER: Inhibition of human OVCAR-4 cell growth in a cell viability assay.

EW-11 = tested on: EW-11
Description: SANGER: Inhibition of human EW-11 cell growth in a cell viability assay.

TGBC1TKB = tested on: TGBC1TKB
Description: SANGER: Inhibition of human TGBC1TKB cell growth in a cell viability assay.

NCI-H1299 = tested on: NCI-H1299
Description: SANGER: Inhibition of human NCI-H1299 cell growth in a cell viability assay.

EW-13 = tested on: EW-13
Description: SANGER: Inhibition of human EW-13 cell growth in a cell viability assay.

BB49-HNC = tested on: BB49-HNC
Description: SANGER: Inhibition of human BB49-HNC cell growth in a cell viability assay.

RKO = tested on: RKO
Description: SANGER: Inhibition of human RKO cell growth in a cell viability assay.

SW982 = tested on: SW982
Description: SANGER: Inhibition of human SW982 cell growth in a cell viability assay.

In the case of `CCn1c(-c2nonc2N)nc2cnc(Oc3cccc(NC(=O)c4ccc(OCCN5CCOCC5)cc4)c3)cc21` [GSK-269962A], the pIC50 (TE-9) was < 5.60, the pIC50 (JVM-3) was < 5.60 and the pIC50 (L-363) was < 5.60. The pIC50 (HAL-01) was < 5.60, the pIC50 (GT3TKB) was 5.79 and the pIC50 (MFM-223) was < 5.60. For the same compound, the pIC50 (MOLT-4) was < 5.60, the pIC50 (ES3) was < 5.60 and the pIC50 (TE-5) was < 5.60. For the same compound, the pIC50 (COLO-800) was < 5.60, the pIC50 (COLO-320-HSR) was < 5.60 and the pIC50 (L-428) was < 5.60. The pIC50 (NCI-H82) was < 5.60, the pIC50 (ES4) was < 5.60 and the pIC50 (MZ2-MEL) was < 5.60. For the same compound, the pIC50 (SK-MEL-1) was < 5.60, the pIC50 (no-10) was 6.17 and the pIC50 (NCI-H747) was < 5.60. The pIC50 (HH) was < 5.60, the pIC50 (A101D) was 5.73 and the pIC50 (NB10) was 6.86. For the same compound, the pIC50 (A388) was < 5.60, the pIC50 (CCRF-CEM) was < 5.60 and the pIC50 (HT) was < 5.60. For the same compound, the pIC50 (HCC1187) was < 5.60, the pIC50 (MLMA) was < 5.60 and the pIC50 (DSH1) was < 5.60. The pIC50 (CGTH-W-1) was < 5.60, the pIC50 (ONS-76) was < 5.60 and the pIC50 (SK-N-DZ) was < 5.60. For the same compound, the pIC50 (KARPAS-45) was < 5.60, the pIC50 (DMS-114) was < 5.60 and the pIC50 (DJM-1) was < 5.60. For the same compound, the pIC50 (NCI-H1092) was < 5.60, the pIC50 (COLO-824) was < 5.60 and the pIC50 (HD-MY-Z) was < 5.60. For the same compound, the pIC50 (SK-UT-1) was < 5.60, the pIC50 (NOS-1) was < 5.60 and the pIC50 (LAMA-84) was < 5.60. For the same compound, the pIC50 (U-266) was < 5.60, the pIC50 (DEL) was < 5.60 and the pIC50 (KINGS-1) was < 5.60. For the same compound, the pIC50 (K562) was < 5.60, the pIC50 (HEL) was < 5.60 and the pIC50 (NCI-H446) was < 5.60. The pIC50 (KP-N-YS) was < 5.60, the pIC50 (TE-6) was < 5.60 and the pIC50 (LNCaP-Clone-FGC) was < 5.60. For the same compound, the pIC50 (LB2518-MEL) was 5.77, the pIC50 (NCI-H1304) was < 5.60 and the pIC50 (NCI-H510A) was < 5.60. The pIC50 (TE-10) was < 5.60, the pIC50 (RCC10RGB) was < 5.60 and the pIC50 (KALS-1) was < 5.60. The pIC50 (SK-NEP-1) was < 5.60, the pIC50 (UACC-257) was < 5.60 and the pIC50 (OCI-AML2) was < 5.60. The pIC50 (EKVX) was < 5.60, the pIC50 (OVCAR-4) was < 5.60 and the pIC50 (EW-11) was < 5.60. The pIC50 (TGBC1TKB) was < 5.60, the pIC50 (NCI-H1299) was < 5.60 and the pIC50 (EW-13) was < 5.60. The pIC50 (BB49-HNC) was 8.10 and the pIC50 (RKO) was < 5.60.

`CO[C@@]12[C@H](COC(N)=O)C3=C(C(=O)C(C)=C(N)C3=O)N1C[C@@H]1N[C@@H]12` [MITOMYCIN] was tested, and the pIC50 (TE-9) was 6.30, the pIC50 (JVM-3) was 5.58 and the pIC50 (L-363) was 6.36. The pIC50 (HAL-01) was 7.80, the pIC50 (GT3TKB) was 6.50 and the pIC50 (MFM-223) was 4.98. The pIC50 (MOLT-4) was > 7.20, the pIC50 (ES3) was > 7.20 and the pIC50 (TE-5) was 6.88. For the same compound, the pIC50 (COLO-800) was 7.10, the pIC50 (COLO-320-HSR) was 5.97 and the pIC50 (L-428) was 5.94. The pIC50 (NCI-H82) was 5.55, the pIC50 (ES4) was > 7.20 and the pIC50 (MZ2-MEL) was 6.36. The pIC50 (SK-MEL-1) was 5.72, the pIC50 (no-10) was 6.52 and the pIC50 (NCI-H747) was 6.39. The pIC50 (HH) was 5.97, the pIC50 (A101D) was 6.59 and the pIC50 (NB10) was 7.09. For the same compound, the pIC50 (A388) was 6.68, the pIC50 (CCRF-CEM) was 7.21 and the pIC50 (HT) was 5.81. The pIC50 (HCC1187) was 5.05, the pIC50 (MLMA) was 5.88 and the pIC50 (SW982) was 6.98. For the same compound, the pIC50 (DSH1) was 7.02, the pIC50 (CGTH-W-1) was 7.41 and the pIC50 (ONS-76) was 6.48. The pIC50 (SK-N-DZ) was 5.62, the pIC50 (KARPAS-45) was 5.64 and the pIC50 (DMS-114) was 5.68. The pIC50 (DJM-1) was 5.99, the pIC50 (NCI-H1092) was 5.48 and the pIC50 (COLO-824) was 5.84. It also gave a pIC50 (HD-MY-Z) of 6.19, a pIC50 (SK-UT-1) of 7.08 and a pIC50 (NOS-1) of 5.82. It also gave a pIC50 (LAMA-84) of 6.19, a pIC50 (U-266) of 6.06 and a pIC50 (DEL) of 7.32. For the same compound, the pIC50 (KINGS-1) was 5.06, the pIC50 (K562) was 5.70 and the pIC50 (HEL) was 7.45. It also gave a pIC50 (NCI-H446) of 4.91, a pIC50 (TE-6) of 6.05 and a pIC50 (LNCaP-Clone-FGC) of 6.35. The pIC50 (LB2518-MEL) was 6.27, the pIC50 (NCI-H1304) was 6.43 and the pIC50 (NCI-H510A) was 6.39. It also gave a pIC50 (TE-10) of 7.14, a pIC50 (RCC10RGB) of 5.87 and a pIC50 (KALS-1) of 6.89. The pIC50 (SK-NEP-1) was 6.78, the pIC50 (UACC-257) was 5.81 and the pIC50 (OCI-AML2) was > 7.20. For the same compound, the pIC50 (EKVX) was 6.05, the pIC50 (OVCAR-4) was 6.16 and the pIC50 (EW-11) was 6.29. It also gave a pIC50 (TGBC1TKB) of 5.92, a pIC50 (NCI-H1299) of 6.66 and a pIC50 (EW-13) of 7.28. The pIC50 (BB49-HNC) was 6.45 and the pIC50 (RKO) was 6.90.

Reference: ChEMBL document CHEMBL1201861, “Genomics of Drug Sensitity in Cancer screening data, Wellcome Trust Sanger Institute”
